Assay results published in US20220177471A1, “N-1 BRANCHED ALKYL SUBSTITUTED IMIDAZO[4,5-C]QUINOLINE COMPOUNDS, COMPOSITIONS, AND METHODS” (3M INNOVATIVE PROPERTIES COMPANY, priority 2019, published 2022).
Values belong to the compound of their own block, whether it stands above or below them.

Molecular target: T1, human TLR7 (Homo sapiens, UniProt Q9NYK1)
T1 construct: host or cells: HEK293 (HEK-BLUE-hTLR7)
T1 sequence (Q9NYK1 27-1049): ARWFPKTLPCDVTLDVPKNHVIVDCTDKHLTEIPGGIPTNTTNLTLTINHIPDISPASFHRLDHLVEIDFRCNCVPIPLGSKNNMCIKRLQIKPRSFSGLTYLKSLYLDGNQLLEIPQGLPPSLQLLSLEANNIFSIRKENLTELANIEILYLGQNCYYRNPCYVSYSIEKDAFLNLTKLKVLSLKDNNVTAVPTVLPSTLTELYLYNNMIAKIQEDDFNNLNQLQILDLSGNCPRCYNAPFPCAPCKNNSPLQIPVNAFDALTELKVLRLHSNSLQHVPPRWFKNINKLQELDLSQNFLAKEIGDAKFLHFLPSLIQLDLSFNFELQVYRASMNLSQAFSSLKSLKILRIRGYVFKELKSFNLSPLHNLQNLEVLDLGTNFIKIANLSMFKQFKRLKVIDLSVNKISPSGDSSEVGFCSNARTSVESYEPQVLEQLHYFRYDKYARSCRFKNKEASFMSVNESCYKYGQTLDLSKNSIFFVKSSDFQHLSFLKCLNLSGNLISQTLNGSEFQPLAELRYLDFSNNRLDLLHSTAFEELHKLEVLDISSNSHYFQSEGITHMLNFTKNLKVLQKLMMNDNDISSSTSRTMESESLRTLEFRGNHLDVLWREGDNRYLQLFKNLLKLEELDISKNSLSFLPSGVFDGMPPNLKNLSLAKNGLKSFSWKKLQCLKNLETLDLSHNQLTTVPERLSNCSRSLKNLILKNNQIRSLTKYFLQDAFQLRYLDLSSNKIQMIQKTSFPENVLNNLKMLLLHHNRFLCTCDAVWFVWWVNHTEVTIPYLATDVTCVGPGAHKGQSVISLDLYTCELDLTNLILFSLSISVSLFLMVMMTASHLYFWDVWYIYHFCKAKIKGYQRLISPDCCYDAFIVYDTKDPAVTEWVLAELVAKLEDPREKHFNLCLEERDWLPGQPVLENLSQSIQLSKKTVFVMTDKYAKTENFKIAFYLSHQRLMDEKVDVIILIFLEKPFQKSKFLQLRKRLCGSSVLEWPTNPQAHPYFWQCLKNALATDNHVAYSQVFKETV
Experiment: TLR activation, HEK-BLUE-hTLR7 SEAP reporter cells
Format: cell-based
Details: 16-20 hours, lowest concentration giving SEAP response at least 2x vehicle control, tested 0.01-30 micromolar
Procedure: HEK-BLUE-hTLR7 or hTLR8 reporter cells were obtained from InvivoGen, San Diego, Calif. According to the manufacturer's description, these reporter cells were prepared by co-transfection of HEK293 cells with an inducible secreted embryonic alkaline phosphatase (SEAP) reporter gene and either the human TLR7 or TLR8 gene. The SEAP reporter gene was placed under the control of an IFN-β minimal promoter fused to five NF-κB and AP-1-binding sites. In the presence of a TLR ligand, activation of NF-κB and AP-1 occurs, resulting in a corresponding increase in SEAP levels.
In the assay, the HEK cells were grown and maintained using standard cell culture techniques in a growth medium that contained Dulbecco's Modified Eagle Medium (ThermoFisher Scientific Incorporated, Waltham, Mass.) supplemented with 1% penicillin/streptomycin and 10% heat-inactivated Gibco fetal bovine serum (ThermoFisher Scientific). Each compound was solubilized in DMSO to create a 3 mM stock solution. The stock solution was then further diluted with the growth medium to prepare serial dilutions. Each test compound was tested at a concentration of 30, 10, 3.3, 1.1, 0.37, 0.12, 0.04, and 0.01 micromolar using a 96-well format with 5×10^4 cells and 200 microliters of growth medium per well.
For each compound, hTLR7, hTLR8, and their respective null control HEK cells were screened. DMSO serially diluted into the growth medium served as the vehicle control. Cell culture supernatants containing the SEAP reporter were collected after an incubation period of 16-20 hours in a cell culture incubator (37° C. and 5% CO2), and either analyzed immediately or stored at −80° C. SEAP levels were measured using the colorimetric enzyme assay (QUANTI-BLUE (InvivoGen) according to manufacturer's instructions.
Specifically, the minimum effective concentration of each compound (micromolar) was determined as the lowest concentration of the compound that produced a SEAP expression response at least 2× greater than that observed with the vehicle control wells.

Compound: C[C@@H](n1cnc2c(N)nc3ccccc3c21)C(C)(C)C [Example 3, 1-[(1R)-1,2,2-trimethylpropyl]imidazo[4,5-c]quinolin-4-amine]
MEC to Produce TLR Activation: TLR 7: 1.11 µM

Compound: C[C@@H](n1cnc2c(N)nc3ccccc3c21)C(C)(C)O [Example 9, (3R)-3-(4-aminoimidazo[4,5-c]quinolin-1-yl)-2-methyl-butan-2-ol]
MEC to Produce TLR Activation: TLR 7: 3.3 µM

Compound: CC(C)Cn1cnc2c(N)nc3ccccc3c21 [Comparative Example 1, 1-isobutylimidazo[4,5-c]quinolin-4-amine, reference compound]
MEC to Produce TLR Activation: TLR 7: 10 µM

Compound: CCC[C@@H](n1cnc2c(N)nc3ccccc3c21)C(C)(C)O [Example 13, (3R)-3-(4-aminoimidazo[4,5-c]quinolin-1-yl)-2-methyl-hexan-2-ol]
MEC to Produce TLR Activation: TLR 7: 0.04 µM

Compound: C[C@H](n1cnc2c(N)nc3ccccc3c21)C(C)(C)C [Example 4, 1-[(1S)-1,2,2-trimethylpropyl]imidazo[4,5-c]quinolin-4-amine]
MEC to Produce TLR Activation: TLR 7: >30 µM

Compound: CCCC[C@H](n1cnc2c(N)nc3ccccc3c21)C(C)(C)O [Example 16, (3S)-3-(4-aminoimidazo[4,5-c]quinolin-1-yl)-2-methyl-heptan-2-ol]
MEC to Produce TLR Activation: TLR 7: >30 µM

Compound: CC[C@@H](n1cnc2c(N)nc3ccccc3c21)C(C)(C)O [Example 11, (3R)-3-(4-aminoimidazo[4,5-c]quinolin-1-yl)-2-methyl-pentan-2-ol]
MEC to Produce TLR Activation: TLR 7: 1.1 µM

Compound: C[C@H](C1CCCCC1)n1cnc2c(N)nc3ccccc3c21 [Example 5, 1-[(1R)-1-cyclohexylethyl]imidazo[4,5-c]quinolin-4-amine]
MEC to Produce TLR Activation: TLR 7: 1.11 µM

Compound: CC(C)[C@H](C)n1cnc2c(N)nc3ccccc3c21 [Example 2, 1-[(1S)-1,2-dimethylpropyl]imidazo[4,5-c]quinolin-4-amine]
MEC to Produce TLR Activation: TLR 7: >30 µM

Compound: CCCC[C@@H](n1cnc2c(N)nc3ccccc3c21)C(C)(C)C [Example 8, 1-[(1R)-1-tert-butylpentyl]imidazo[4,5-c]quinolin-4-amine]
MEC to Produce TLR Activation: TLR 7: ≤0.01 µM

Compound: C[C@H](n1cnc2c(N)nc3ccccc3c21)C(C)(C)O [Example 10, (3S)-3-(4-aminoimidazo[4,5-c]quinolin-1-yl)-2-methyl-butan-2-ol]
MEC to Produce TLR Activation: TLR 7: >30 µM

Compound: CCC[C@H](n1cnc2c(N)nc3ccccc3c21)C(C)(C)O [Example 14, (3S)-3-(4-aminoimidazo[4,5-c]quinolin-1-yl)-2-methyl-hexan-2-ol]
MEC to Produce TLR Activation: TLR 7: >30 µM

Compound: CC(C)C[C@H](n1cnc2c(N)nc3ccccc3c21)C(C)(C)O [Example 18, (3S)-3-(4-aminoimidazo[4,5-c]quinolin-1-yl)-2,5-dimethyl-hexan-2-ol]
MEC to Produce TLR Activation: TLR 7: >30 µM

More lines, now with the values ahead:

MEC to Produce TLR Activation: TLR 7: 0.01 µM
Compound: CCCC[C@@H](n1cnc2c(N)nc3ccccc3c21)C(C)(C)O [Example 15, (3R)-3-(4-aminoimidazo[4,5-c]quinolin-1-yl)-2-methyl-heptan-2-ol]

MEC to Produce TLR Activation: TLR 7: >30 µM
Compound: C[C@@H](C1CCCCC1)n1cnc2c(N)nc3ccccc3c21 [Example 6, 1-[(1S)-1-cyclohexylethyl]imidazo[4,5-c]quinolin-4-amine]

MEC to Produce TLR Activation: TLR 7: 1.1 µM
Compound: CC(C)[C@@H](C)n1cnc2c(N)nc3ccccc3c21 [Example 1, 1-[(1R)-1,2-dimethylpropyl]imidazo[4,5-c]quinolin-4-amine]

MEC to Produce TLR Activation: TLR 7: 3.3 µM
Compound: CCC(O)(CC)[C@@H](C)n1cnc2c(N)nc3ccccc3c21 [Example 19, (2R)-2-(4-aminoimidazo[4,5-c]quinolin-1-yl)-3-ethyl-pentan-3-ol]

MEC to Produce TLR Activation: TLR 7: >30 µM
Compound: CC[C@H](n1cnc2c(N)nc3ccccc3c21)C(C)(C)O [Example 12, (3S)-3-(4-aminoimidazo[4,5-c]quinolin-1-yl)-2-methyl-pentan-2-ol]

MEC to Produce TLR Activation: TLR 7: 0.04 µM
Compound: CCCC[C@H](C(C)C)n1cnc2c(N)nc3ccccc3c21 [Example 7, 1-[(1R)-1-isopropylpentyl]imidazo[4,5-c]quinolin-4-amine]

MEC to Produce TLR Activation: TLR 7: 10 µM
Compound: CC(C)(O)Cn1cnc2c(N)nc3ccccc3c21 [Comparative Example 2, 1-(4-aminoimidazo[4,5-c]quinolin-1-yl)-2-methyl-propan-2-ol, reference compound]

MEC to Produce TLR Activation: TLR 7: 1.1 µM
Compound: CC(C)C[C@@H](n1cnc2c(N)nc3ccccc3c21)C(C)(C)O [Example 17, (3R)-3-(4-aminoimidazo[4,5-c]quinolin-1-yl)-2,5-dimethyl-hexan-2-ol]

MEC to Produce TLR Activation: TLR 7: >30 µM
Compound: C[C@H](n1cnc2c(N)nc3ccccc3c21)C(C)(C)F [Example 21, 1-[(1S)-2-fluoro-1,2-dimethyl-propyl]imidazo[4,5-c]quinolin-4-amine]

MEC to Produce TLR Activation: TLR 7: 3.3 µM
Compound: C[C@@H](n1cnc2c(N)nc3ccccc3c21)C(C)(C)F [Example 20, 1-[(1R)-2-fluoro-1,2-dimethyl-propyl]imidazo[4,5-c]quinolin-4-amine]
